The text below walks through data of patent publication US20150051202A1, “TRIAZOLOPYRAZINE DERIVATIVES” (Merck Patent GmbH, priority 2012, published 2015).

Each structure is given as a SMILES string. Marks after values point to notes of the source that are not given here. Where only a bound is given, the exact number is not on record here.

The target in one assay is T1, SYK (Homo sapiens, UniProt P43405).
T1 construct: purchased BPS Bioscience, CA, USA
Briefly: SYK enzyme assay (Flash plate assay / Caliper mobility shift assay). The assay is classed as biochemical. In short, it runs like this: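 Flashplate: 2.5 nM SYK, 400 nM biotinylated peptide and 10 μM ATP with 33P-ATP, pH 7.5, 1 h at 30 °C, EDTA stop, radioactivity read, background with 0.1 μM staurosporine. Caliper: 90 min at 25 °C in HEPES pH 7.5, 1 mM MgCl2, 1 mM DTT, mobility-shift percent conversion of fluorescent peptide. IC50 from dose-response in both.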

Another assay has as its target GCN2 (Homo sapiens, UniProt Q9P2K8). Briefly: GCN2 enzyme assay (TR-FRET Lanthascreen, GFP-eIF2alpha substrate). Format: biochemical. The following applies: for GCN2 (enzyme assay) % at 10 μM: 100% corresponds to zero effect, −50% corresponds to IC50. In short, it runs like this: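 GCN2 (30 nM) incubated at room temperature with 10 μM ATP and 80 nM GFP-eIF2alpha in 50 mM Hepes pH 7.0, 10 mM MgCl2, 5 mM MnCl2, 2 mM DTT, 0.1% BSA, 1% DMSO. Reaction stopped with EDTA; phospho-eIF2alpha detected by antibody TR-FRET, excitation 340 nm.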
(In general: TR-FRET usually uses a lanthanide donor and a delayed reading to cut background.)

Setting [1] is: 100% corresponds to zero effect, −50% corresponds to IC50.

What is called IC50 is the midpoint of a concentration-inhibition curve.

Chain of GCN2 (Q9P2K8 whole entry): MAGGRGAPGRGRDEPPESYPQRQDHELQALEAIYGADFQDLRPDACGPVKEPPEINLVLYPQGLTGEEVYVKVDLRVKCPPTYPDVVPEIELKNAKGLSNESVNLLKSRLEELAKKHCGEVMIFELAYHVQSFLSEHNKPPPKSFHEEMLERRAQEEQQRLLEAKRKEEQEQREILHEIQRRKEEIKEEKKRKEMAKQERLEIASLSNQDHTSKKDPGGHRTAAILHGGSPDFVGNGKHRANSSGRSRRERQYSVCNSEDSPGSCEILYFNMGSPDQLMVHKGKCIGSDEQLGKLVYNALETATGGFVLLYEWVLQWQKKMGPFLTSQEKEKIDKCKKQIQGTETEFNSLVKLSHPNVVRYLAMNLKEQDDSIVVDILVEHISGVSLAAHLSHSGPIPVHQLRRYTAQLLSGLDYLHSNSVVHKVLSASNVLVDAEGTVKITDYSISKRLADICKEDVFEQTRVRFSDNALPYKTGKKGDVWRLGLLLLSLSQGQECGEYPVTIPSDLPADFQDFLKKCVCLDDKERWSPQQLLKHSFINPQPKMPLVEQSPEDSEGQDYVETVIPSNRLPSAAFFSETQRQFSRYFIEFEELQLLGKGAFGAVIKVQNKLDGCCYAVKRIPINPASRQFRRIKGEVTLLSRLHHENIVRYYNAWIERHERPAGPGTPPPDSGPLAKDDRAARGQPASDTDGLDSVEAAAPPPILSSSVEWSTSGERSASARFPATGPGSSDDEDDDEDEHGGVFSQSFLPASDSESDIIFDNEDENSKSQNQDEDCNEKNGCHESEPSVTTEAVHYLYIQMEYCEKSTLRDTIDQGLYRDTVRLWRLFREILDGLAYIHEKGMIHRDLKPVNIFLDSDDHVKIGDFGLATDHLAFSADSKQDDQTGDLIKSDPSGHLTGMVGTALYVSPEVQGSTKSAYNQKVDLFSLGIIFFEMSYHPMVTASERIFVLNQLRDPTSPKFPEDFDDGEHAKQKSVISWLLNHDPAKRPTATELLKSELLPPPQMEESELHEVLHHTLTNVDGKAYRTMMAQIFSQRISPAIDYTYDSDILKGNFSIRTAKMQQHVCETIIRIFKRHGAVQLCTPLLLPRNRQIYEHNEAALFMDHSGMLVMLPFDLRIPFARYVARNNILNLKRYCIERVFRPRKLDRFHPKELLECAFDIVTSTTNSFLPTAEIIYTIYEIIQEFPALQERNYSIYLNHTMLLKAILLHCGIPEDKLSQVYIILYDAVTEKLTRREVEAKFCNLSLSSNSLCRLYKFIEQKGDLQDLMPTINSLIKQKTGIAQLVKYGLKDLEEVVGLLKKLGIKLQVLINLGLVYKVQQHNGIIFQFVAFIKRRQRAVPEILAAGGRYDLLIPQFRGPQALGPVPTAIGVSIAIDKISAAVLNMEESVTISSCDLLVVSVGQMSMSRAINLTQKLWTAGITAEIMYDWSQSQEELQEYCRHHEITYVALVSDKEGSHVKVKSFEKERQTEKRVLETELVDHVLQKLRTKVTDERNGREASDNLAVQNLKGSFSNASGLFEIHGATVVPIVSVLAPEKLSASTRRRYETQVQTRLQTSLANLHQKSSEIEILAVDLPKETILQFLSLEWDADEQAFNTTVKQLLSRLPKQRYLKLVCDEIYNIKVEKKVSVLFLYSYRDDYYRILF

Turning to `c1cncc(Nc2nc3cnc(-c4cccnc4)cn3n2)c1` [Compound A25, pyridin-3-yl-(6-pyridin-3-yl-[1,2,4]triazolo[1,5-a]pyrazin-2-yl]-amine], the “SYK (enzyme assay) % at 3 μM” value at SYK (setting [1]) is −8@3%. The IC50 against GCN2 was in the range of 1 to 5 µM.

For the compound `COc1cc(Nc2nc3cncc(-c4ccccc4-c4ccccc4)n3n2)cc(OC)c1` [Compound A37], the IC50 at SYK fell in the range of 1 to 5 µM. For the same compound, on GCN2, the “GCN2 (enzyme assay) % at 10 μM” value is on record as 3@10%.

As to `CN(C)Cc1nc2cc(Nc3nc4cncc(-c5ccc6c(cnn6C)c5)n4n3)ccc2[nH]1` [Compound A6, (2-dimethylaminomethyl-1H-benzoimidazol-5-yl)-[5-(1-methyl-1H-indazol-5-yl)-[1,2,4]triazolo[1,5-a]pyrazin-2-yl]-amine], the IC50 on SYK is 1 to 5 µM; at GCN2, less than 1 µM.

Turning to `Cn1cc(-c2ncc3nc(Nc4ccc(N5CCOCC5)cc4)nn3c2-c2cnn(C)c2)cn1` [Compound A46, [5,6-Bis-(1-methyl-1H-pyrazol-4-yl)-[1,2,4]triazolo[1,5-a]pyrazin-2-yl]-(4-morpholin-4-yl-phenyl)-amine], the IC50 at SYK was in the range of 1 to 5 µM. The “GCN2 (enzyme assay) % at 10 μM” value on GCN2 is recorded as −8@10%.

As to `Cn1ncc2cc(-c3cncc4nc(Nc5ccc(S(C)(=O)=O)cc5)nn34)ccc21` [Compound A1, (4-methanesulfonyl-phenyl)-[5-(1-methyl-1H-indazol-5-yl)-[1,2,4]triazolo[1,5-a]pyrazin-2-yl]-amine], at SYK (setting [1]), the “SYK (enzyme assay) % at 3 μM” value is reported as −18@3 * %. Further, the IC50 against GCN2 was in the range of 5 to 10 µM.

Take `c1ccc(-c2ccccc2-c2cncc3nc(Nc4ccc(N5CCOCC5)cc4)nn23)cc1` [Compound A36, (5-biphenyl-2-yl-[1,2,4]triazolo[1,5-a]pyrazin-2-yl)-(4-morpholin-4-yl-phenyl)-amine]: the IC50 on SYK lay within 1 to 5 µM. In addition, the “GCN2 (enzyme assay) % at 10 μM” value at GCN2 was −4@10%.

For the compound `Cn1cc(-c2cncc3nc(Nc4cccc(N5CCOCC5)c4)nn23)cn1` [Compound A80, [5-(1-methyl-1H-pyrazol-4-yl)-[1,2,4]triazolo[1,5-a]pyrazin-2-yl]-(3-morpholin-4-yl-phenyl)-amine], the “SYK (enzyme assay) % at 1 μM” value at SYK (at 1 μM, 100% corresponds to zero effect, −50% corresponds to IC50) is recorded as −26@1%. This compound displayed an IC50 against GCN2 of less than 1 µM.

Consider `CN1CCN(c2ccc(Nc3nc4cncc(-c5cnn(CCN6CCOCC6)c5)n4n3)cc2)CC1` [Compound A48, [4-(4-methyl-piperazin-1-yl)-phenyl]-{5-[1-(2-morpholin-4-yl-ethyl)-1H-pyrazol-4-yl]-[1,2,4]triazolo[1,5-a]pyrazin-2-yl}-amine], for which the IC50 at SYK was 5 to 10 µM; against GCN2, less than 1 µM.

For the compound `Cc1ccc(-c2cncc3nc(Nc4ccc(N5CCOCC5)cc4)nn23)o1` [Compound A55, [5-(5-methyl-furan-2-yl)-[1,2,4]triazolo[1,5-a]pyrazin-2-yl]-(4-morpholin-4-yl-phenyl)-amine], the IC50 at SYK and at GCN2 was less than 1 µM in each case.

On to `Cn1cc(-c2cncc3nc(Nc4ccc(-c5ccncc5)cc4)nn23)cn1` [Compound A60, [5-(1-methyl-1H-pyrazol-4-yl)-[1,2,4]triazolo[1,5-a]pyrazin-2-yl]-(4-pyridin-4-yl-phenyl)-amine], for which the values for the IC50 on SYK and at GCN2 were less than 1 µM and 1 to 5 µM, respectively.

On to `c1cncc(Nc2nc3cncc(-c4ccc(N5CCOCC5)cc4)n3n2)c1` [Compound A16, [5-(4-morpholin-4-yl-phenyl)-[1,2,4]triazolo[1,5-a]pyrazin-2-yl]-pyridin-3-yl-amine], for which the “SYK (enzyme assay) % at 3 μM” value on SYK (setting [1]) is 1.5@3%. On GCN2, this compound showed an IC50 of less than 1 µM.

On to `COc1cc(Nc2nc3cncc(-c4cnn(C)c4)n3n2)ccc1NC(=O)C1CCNCC1` [Compound A84, piperidine-4-carboxylic acid {2-methoxy-4-[5-(1-methyl-1H-pyrazol-4-yl)-[1,2,4]triazolo[1,5-a]pyrazin-2-ylamino]-phenyl}-amide], for which the IC50 was 5 to 10 µM on SYK and less than 1 µM on GCN2.

Consider `COc1cc(Nc2nc3cncc(-c4cnn(C)c4)n3n2)ccc1N1CCN(C)CC1` [Compound A67, [3-methoxy-4-(4-methyl-piperazin-1-yl)-phenyl]-[5-(1-methyl-1H-pyrazol-4-yl)-[1,2,4]triazolo[1,5-a]pyrazin-2-yl]-amine], for which the IC50 on SYK was 1 to 5 µM; against GCN2 it was less than 1 µM.

Consider `Fc1ccc(-c2cncc3nc(Nc4cccnc4)nn23)cc1` [Compound A27, [5-(4-fluoro-phenyl)-[1,2,4]triazolo[1,5-a]pyrazin-2-yl]-pyridin-3-yl-amine], for which the “SYK (enzyme assay) % at 3 μM” value at SYK (setting [1]) is listed as −6@3%. The IC50 against GCN2 is 1 to 5 µM.

In the case of `Cc1cc(Nc2nc3cncc(-c4cnn(CCN5CCOCC5)c4)n3n2)ccc1N1CCN(C)CC1` [Compound A50, [3-methyl-4-(4-methyl-piperazin-1-yl)-phenyl]-{5-[1-(2-morpholin-4-yl-ethyl)-1H-pyrazol-4-yl]-[1,2,4]triazolo[1,5-a]pyrazin-2-yl}-amine], the “SYK (enzyme assay) % at 3 μM” value on SYK (setting [1]) was −32@3%. On GCN2, this compound had an IC50 of less than 1 µM.

Regarding `c1ccc2ncc(-c3cncc4nc(Nc5ccc(N6CCOCC6)cc5)nn34)cc2c1` [Compound A32, (4-morpholin-4-yl-phenyl)-(5-quinolin-3-yl-[1,2,4]triazolo[1,5-a]pyrazin-2-yl)-amine], the “SYK (enzyme assay) % at 3 μM” value at SYK (setting [1]) is given as −35@3%. The IC50 against GCN2 lay in the range of 1 to 5 µM.

For `COc1cc(Nc2nc3cncc(-c4cccc(O)c4)n3n2)ccc1N1CCN(C)CC1` [Compound A86, 3-{2-[3-methoxy-4-(4-methyl-piperazin-1-yl)-phenylamino]-[1,2,4]triazolo[1,5-a]pyrazin-5-yl}-phenol], the IC50 at SYK and on GCN2 was less than 1 µM each time.

Take `Cn1cc(-c2cncc3nc(Nc4ccc5c(c4)OCCO5)nn23)cn1` [Compound A59, (2,3-dihydro-benzo[1,4]dioxin-6-yl)-[5-(1-methyl-1H-pyrazol-4-yl)-[1,2,4]triazolo[1,5-a]pyrazin-2-yl]-amine]: the results for the IC50 on SYK and against GCN2 were 1 to 5 µM and less than 1 µM, respectively.

On to `COc1cc(Nc2nc3cncc(-c4cnn(C5CCOCC5)c4)n3n2)ccc1N1CCN(C)CC1` [Compound A77, [3-methoxy-4-(4-methyl-piperazin-1-yl)-phenyl]-{5-[1-(tetrahydro-pyran-4-yl)-1H-pyrazol-4-yl]-[1,2,4]triazolo[1,5-a]pyrazin-2-yl}-amine], for which the IC50 on SYK was 1 to 5 µM; on GCN2 it was less than 1 µM.

With `O=C1Cc2cc(Nc3nc4cncc(-c5ccc(N6CCOCC6)cc5)n4n3)ccc2N1` [Compound A15, 5-[5-(4-morpholin-4-yl-phenyl)-[1,2,4]triazolo[1,5-a]pyrazin-2-ylamino]-1,3-dihydro-indol-2-one], the IC50 is 1 to 5 µM on SYK and less than 1 µM at GCN2.

In the case of `c1cc(N2CCOCC2)ccc1Nc1nc2cncc(-c3cnn(CCN4CCOCC4)c3)n2n1` [Compound A56, {5-[1-(2-morpholin-4-yl-ethyl)-1H-pyrazol-4-yl]-[1,2,4]triazolo[1,5-a]pyrazin-2-yl}-(4-morpholin-4-yl-phenyl)-amine], the IC50 at SYK and against GCN2 was 1 to 5 µM throughout.

Take `Cc1ncc2nc(Nc3ccc(N4CCOCC4)cc3)nn2c1-c1cnn(C)c1` [Compound A44, [6-methyl-5-(1-methyl-1H-pyrazol-4-yl)-[1,2,4]triazolo[1,5-a]pyrazin-2-yl]-(4-morpholin-4-yl-phenyl)-amine]: the IC50 fell in the range of 1 to 5 µM on SYK and 5 to 10 µM on GCN2.
